Test results reported in patent US20060134225A1, “Phosphate binder with reduced pill burden” (priority 2004, published 2006).

How the values were obtained:
[1] = test system: adult beagle dogs; assay: Dog study, urine phosphate excretion; format: in vivo; settings: oral capsules, 2250 mg elemental lanthanum twice daily
Protocol: The doses were administered 30 minutes after provision of food to the animals. At least 14 days washout was allowed between the crossover arms. Plasma was obtained pre-dose and 1.5, 3, 6, 7.5, 9, 12, 24, 36, 48, 60, and 72 hours after dosing and analyzed for lanthanum using ICP-MS. Urine was collected by catheterization before and approximately 24 hours after dosing and creatinine and phosphorus concentrations measured.

[2] = test system: adult Sprague-Dawley rats; assay: In vivo study in 5/6 nephrectomized rats, urine phosphorus excretion; design: species or system rat; settings: 314 mg elemental lanthanum/kg/day oral, 14 days, compared to untreated rats
Protocol: Groups of six adult Sprague-Dawley rats underwent ⅚th nephrectomy in two stages over a period of 2 weeks and were then allowed to recover for a further two weeks prior to being randomized for treatment. The groups received vehicle (0.5% w/v carboxymethyl cellulose), or lanthanum oxycarbonate suspended in vehicle, once daily for 14 days by oral […] (10 ml/kg/day). The dose delivered 314 mg elemental lanthanum/kg/day. Dosing was carried out immediately before the dark (feeding) cycle on each day. Urine samples (24 hours) were collected prior to surgery, prior to the commencement of treatment, and twice weekly during the treatment period. Volume and phosphorus concentration were measured.
Feeding—During the acclimatization and surgery period, the animals were given Teklad phosphate sufficient diet (0.5% Ca, 0.3% P; Teklad No. TD85343), ad libitum. At the beginning of the treatment period, animals were pair fed based upon the average food consumption of the vehicle-treated animals the previous week.
5/6 Nephrectomy—After one week of acclimatization, all animals were subjected to 5/6 nephrectomy surgery. The surgery was performed in two stages. First, the two lower branches of the left renal artery were ligated. One week later, a right nephrectomy was performed. […]

O=C([O-])[O-].[La+3].[La+3].[O-2].[O-2] [compound B, La2O2CO3]
urine phosphate excretion (marker of phosphorous binding) [1]: reduction of urine phosphate excretion

lanthanum oxycarbonate
phosphorus excretion in urine (marker of dietary phosphorus binding) [2]: decrease in phosphorus excretion

O=C([O-])[O-].[La+3].[OH-] [compound A, LaCO3OH]
urine phosphate excretion (marker of phosphorous binding) [1]: reduction of urine phosphate excretion

O=C([O-])[O-].[La+3].[OH-] [lanthanum carbonate hydroxide]
phosphorus excretion in urine (marker of dietary phosphorus binding) [2]: decrease in phosphorus excretion
